Measurements reported in patent US20260232767A1, “INTERLEUKIN-23 RECEPTOR ANTAGONIST PEPTIDES FOR USE IN THE TREATMENT OF PSORIASIS” (Janssen Pharmaceutica NV, priority 2023, published 2026).

Tested on: subjects with moderate-to-severe plaque psoriasis
Test: PASI response, Example 1 16-week dose-ranging study
Format: in vivo, human
Settings: Week 16; for PASI 100% Improvement, n subjects / PASI ≥75% Improvement, n subjects / PASI ≥90% Improvement, n subjects / PASI ≥75% Improvement, % subjects / PASI ≥90% Improvement, % subjects: N=2
Method: The Psoriasis Area and Severity Index (PASI) is a system used for assessing and grading the severity of psoriatic lesions and their response to therapy. In the PASI system, the body is divided into four regions: the head, trunk, upper extremities, and lower extremities. Each of these areas is assessed and scored separately for erythema, induration, and scaling, which are each rated on a scale of 0 to 4 and extent of involvement on a scale of 0 to 6. The PASI produces a numeric score (a “PASI score”) that can range from 0 to 72. A higher score indicates more severe disease.
This was a randomized, double-blind, placebo-controlled, dose-ranging, parallel group, multicenter, interventional study in subjects with moderate-to-severe plaque psoriasis. A target of 240 subjects were enrolled in this study with 40 subjects planned per intervention group.
Clinician-reported outcomes including Psoriasis Area and Severity Index (PASI), Body Surface Area (BSA), Investigator's Global Assessment (IGA), Nail Psoriasis Area and Severity Index (NAPSI), Fingernail Physician's Global Assessment (f-PGA), Static Physician's Global Assessment of Genitalia (s-PGA-G), Physician's Global Assessment of Hands and/or Feet (hf-PGA), and Scalp Specific Investigator Global Assessment (ss-IGA) were obtained at Week 0, 8, and 16. PASI and IGA were also obtained at Weeks 1, 2, 4, and 12, and at Week 20, four weeks after the administration of the tablets has stopped.
The primary efficacy endpoint was the proportion of participants achieving a PASI 75 response at Week 16, defined as at least a 75% reduction from baseline in PASI total score.
For the primary analysis, composite strategy (non-responder imputation) was applied to address intercurrent event #1 (Discontinuation of study intervention due to lack of efficacy or due to an AE of worsening of psoriasis) and #2 (initiation of a protocol-prohibited medication or therapy that could improve psoriasis); and treatment policy strategy (observed data) was applied to intercurrent event #3 (Discontinuation of study intervention due to other reasons). Participants with missing data after application of ICEs are also considered as non-responders.
In addition to the response analysis, pairwise comparisons of each treatment group versus the placebo group were performed for the primary endpoint of PASI 75 at Week 16. Pairwise comparisons were not adjusted for multiplicity. The Cochran-Mantel-Haenszel chi-square statistic stratified by baseline weight category (≤90 kg, >90 kg) at a 2-sided significance level of 0.05 was used (Table 2).

[1] = 25 mg BID, peak plasma conc. <Q1
[2] = 25 mg BID, peak plasma conc. Q1 to <Q2
[3] = 25 mg BID, peak plasma conc. Q2 to <Q3
[4] = 25 mg BID, peak plasma conc. ≥Q3
[5] = 25 mg BID, trough plasma conc <Q1
[6] = 25 mg BID, trough plasma conc Q1 to <Q2
[7] = 25 mg BID, trough plasma conc Q2 to <Q3
[8] = 25 mg BID, trough plasma conc ≥Q3
[9] = 25 mg QD, peak plasma conc. <Q1
[10] = 25 mg QD, peak plasma conc. Q1 to <Q2
[11] = 25 mg QD, peak plasma conc. Q2 to <Q3
[12] = 25 mg QD, peak plasma conc. ≥Q3
[13] = 25 mg QD, trough plasma conc <Q1
[14] = 25 mg QD, trough plasma conc Q1 to <Q2
[15] = 25 mg QD, trough plasma conc Q2 to <Q3

SMILES: CC(=O)NCCCC[C@@H]1NC(=O)[C@H](Cc2c[nH]c3c(C)cccc23)NC(=O)[C@H]([C@@H](C)O)NC(=O)[C@H](CC(N)=O)NC(=O)[C@@H](NC(C)=O)C(C)(C)SSC(C)(C)[C@@H](C(=O)N[C@@H](Cc2ccc(OCCN)cc2)C(=O)N[C@@H](Cc2ccc3ccccc3c2)C(=O)NC2(C(=O)N[C@@H](CCC(=O)O)C(=O)N[C@@H](CC(N)=O)C(=O)N[C@@H](Cc3cccnc3)C(=O)N(C)CC(N)=O)CCOCC2)NC1=O [IL-23 receptor antagonist peptide, Ac-[Pen]*-N-T-[W(7-Me)]-[Lys(Ac)]-[Pen]*-Phe[4-(2-aminoethoxy)]-[2-Nal]-[THP]-E-N-[3-Pal]-Sarc-NH2 (*[Pen]-[Pen]* formdisulfidebond)]
- PASI 75 treatment difference vs placebo (25 mg BID): 41.9%
- PASI 90 treatment difference vs placebo (25 mg BID): 24.5% (10.4%,
- PASI 100 treatment difference vs placebo (25 mg BID): 9.7% (0.7%,
- Subjects achieving PASI 75 (25 mg BID): 51.2%
- Subjects achieving PASI 90 (25 mg BID): (26.8%)
- Subjects achieving PASI 100 (25 mg BID): (9.8%)
- PASI 75, % (25 mg BID, N=41): (51.2) %
- PASI 90, % (25 mg BID, N=41): (26.8) %
- PASI 100, % (25 mg BID, N=41): (9.8) %
- PASI 100% Improvement, n subjects [1]: 0
- PASI ≥75% Improvement, n subjects [1]: 0
- PASI ≥90% Improvement, n subjects [1]: 0
- PASI 100% Improvement, n subjects [2]: 0
- PASI ≥75% Improvement, % subjects [2]: (100.0%)
- PASI ≥75% Improvement, n subjects [2]: 2
- PASI ≥90% Improvement, n subjects [2]: 0
- PASI 100% Improvement, n subjects [3]: 0
- PASI ≥75% Improvement, % subjects [3]: (50.0%)
- PASI ≥75% Improvement, n subjects [3]: 1
- PASI ≥90% Improvement, % subjects [3]: (50.0%)
- PASI ≥90% Improvement, n subjects [3]: 1
- PASI 100% Improvement, n subjects [4]: 0
- PASI ≥75% Improvement, % subjects [4]: (50.0%)
- PASI ≥75% Improvement, n subjects [4]: 1
- PASI ≥90% Improvement, % subjects [4]: (50.0%)
- PASI ≥90% Improvement, n subjects [4]: 1
- PASI 100% Improvement, subjects [5]: 1 (16.7%)
- PASI ≥75% Improvement, subjects [5]: 3 (50.0%)
- PASI ≥90% Improvement, subjects [5]: 2 (33.3%)
- PASI 100% Improvement, subjects [6]: 1 (16.7%)
- PASI ≥75% Improvement, subjects [6]: 1 (16.7%)
- PASI ≥90% Improvement, subjects [6]: 1 (16.7%)
- PASI 100% Improvement, subjects [7]: 0
- PASI ≥75% Improvement, subjects [7]: 3 (50.0%)
- PASI ≥90% Improvement, subjects [7]: 2 (33.3%)
- PASI 100% Improvement, subjects [8]: 2 (33.3%)
- PASI ≥75% Improvement, subjects [8]: 100.0%
- PASI ≥90% Improvement, subjects [8]: 3 (50.0%)
- PASI 75 treatment difference vs placebo (25 mg QD): 27.9%
- PASI 90 treatment difference vs placebo (25 mg QD): 23.3% (9.6%,
- PASI 100 treatment difference vs placebo (25 mg QD): 11.6% (2.4%,
- Subjects achieving PASI 90 (25 mg QD): (25.6%)
- Subjects achieving PASI 100 (25 mg QD): (11.6%)
- PASI 75, % (25 mg QD, N=43): (37.2) %
- PASI 90, % (25 mg QD, N=43): (25.6) %
- PASI 100, % (25 mg QD, N=43): (11.6) %
- PASI 100% Improvement, n subjects [9]: 0
- PASI ≥75% Improvement, % subjects [9]: (50.0%)
- PASI ≥75% Improvement, n subjects [9]: 1
- PASI ≥90% Improvement, % subjects [9]: (50.0%)
- PASI ≥90% Improvement, n subjects [9]: 1
- PASI 100% Improvement, n subjects [10]: 0
- PASI ≥75% Improvement, % subjects [10]: (50.0%)
- PASI ≥75% Improvement, n subjects [10]: 1
- PASI ≥90% Improvement, % subjects [10]: (50.0%)
- PASI ≥90% Improvement, n subjects [10]: 1
- PASI 100% Improvement, n subjects [11]: 0
- PASI ≥75% Improvement, % subjects [11]: (50.0%)
- PASI ≥75% Improvement, n subjects [11]: 1
- PASI ≥90% Improvement, % subjects [11]: (50.0%)
- PASI ≥90% Improvement, n subjects [11]: 1
- PASI 100% Improvement, n subjects [12]: 0
- PASI ≥75% Improvement, % subjects [12]: (50.0%)
- PASI ≥75% Improvement, n subjects [12]: 1
- PASI ≥90% Improvement, % subjects [12]: (50.0%)
- PASI ≥90% Improvement, n subjects [12]: 1
- PASI 100% Improvement, subjects [13]: 1 (20.0%)
- PASI ≥75% Improvement, subjects [13]: 2 (40.0%)
- PASI ≥90% Improvement, subjects [13]: 2 (40.0%)
- PASI 100% Improvement, subjects [14]: 1 (16.7%)
- PASI ≥75% Improvement, subjects [14]: 2 (33.3%)
- PASI ≥90% Improvement, subjects [14]: 2 (33.3%)
- PASI 100% Improvement, subjects [15]: 0)
- PASI ≥75% Improvement, subjects [15]: 2 (40.0%)
- PASI ≥90% Improvement, subjects [15]: 0
